Series [1] can be described thus: AUC (0 to 24 hrs) in healthy human alveolar cell assessed as hydroxyitraconazole at 200 mg, po every 12 hrs for 5 days. The series is classed as ADME, organism-based, Pneumocyte. On the set-up: time < 24 hr, dose 200 mg, route oral. Conditions: in vivo.
Series [2] concerns Plasma. Description: Cmax in healthy human plasma assessed as hydroxyitraconazole at 200 mg, po every 12 hrs for 5 days. The series is classed as ADME, organism-based. Further details: dose 200 mg, route oral. To be noted: in vivo.
The nature of series [3]: Cmax in healthy human lung epithelial lining fluid at 200 mg, po every 12 hrs for 5 days. The series is classed as ADME, organism-based. Further details: dose 200 mg, route oral.
Series [4] concerns Plasma. Description: AUC (0 to 24 hrs) in healthy human plasma assessed as hydroxyitraconazole at 200 mg, po every 12 hrs for 5 days. The series is classed as ADME, organism-based. To be noted: in vivo. Further details: time < 24 hr, dose 200 mg, route oral.
A short description of series [5]: Cmax in healthy human alveolar cell assessed as hydroxyitraconazole at 200 mg, po every 12 hrs for 5 days. To be noted: in vivo. The series is classed as ADME, organism-based, Lung, Pneumocyte. On the set-up: dose 200 mg, route oral.
Series [6] in a line: AUC (0 to 24 hrs) in healthy human lung epithelial lining fluid assessed as hydroxyitraconazole at 200 mg, po every 12 hrs for 5 days. The series is classed as ADME, organism-based. Further details: dose 200 mg, time < 24 hr, route oral. Conditions: in vivo.

Turning to `CC(O)C(C)n1ncn(-c2ccc(N3CCN(c4ccc(OCC5COC(Cn6cncn6)(c6ccc(Cl)cc6Cl)O5)cc4)CC3)cc2)c1=O` (stereo unspecified) [HYDROXYITRACONAZOLE], the AUC in series [1] was determined as 134000 ng·h/mL; with Plasma [4], 60200 ng·h/mL; in series [6], 18900 ng·h/mL. For the same compound, the Cmax was found to be 1000 ng/mL with Plasma [2], 3300 ng/mL in series [3] and 6600 ng/mL in series [5].

One may read the AUC as the area under the concentration-time curve, a measure of exposure. The Cmax is the maximum level reached in the sampled fluid or tissue.

Values taken from ChEMBL document CHEMBL1629615, “Intrapulmonary pharmacokinetics and pharmacodynamics of posaconazole at steady state in healthy subjects” (Antimicrob Agents Chemother, 2009).
